In patent US20230017045A1, “PYRIDINE AND PYRIMIDINE CARBOXYLATE HERBICIDES AND METHODS OF USE THEREOF” (Dow AgroSciences LLC, priority 2017, published 2023):

test system: test plant species; assay: Post-emergent herbicidal activity test (greenhouse, foliar spray, visual growth reduction); type: in vivo; settings: post-emergence, 336 h, ECHCG: barnyardgrass (Echinochloa crus-galli), 140 g ai/ha, 14 days after application, read-out: Visual Growth Reduction (%) 14 Days After Application, ECHCG
Method in brief: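 Visual percent injury (0-100) rated 14 d after treatment, relative to nontreated and solvent-blank plants. Test plants at first or second true leaf stage received an overhead track-sprayer application at 187 L/ha. Compounds were formulated in aqueous acetone/DMSO carrier containing crop oil concentrate and X-77 surfactant.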

Compound | pest or weed control at 140 g/ha [%]
COC(=O)c1nc(-c2c(C)cc(C(F)(F)F)cc2Cl)ccc1Cl [F250, Methyl 3-chloro-6-(2-chloro-6-methyl-4-(trifluoromethyl)phenyl) picolinate] | 0 to 29
COC(=O)c1nc(-c2cccc(Cl)c2F)ccc1Cl [F277, Methyl 3-chloro-6-(3-chloro-2-fluorophenyl) picolinate] | 0 to 29
COC(=O)c1nc(-c2ccc(Cl)c(CF)c2F)ccc1Cl [F274, Methyl 3-chloro-6-(4-chloro-2-fluoro-3-(fluoromethyl)phenyl) picolinate] | 0 to 29

same assay, conditions: post-emergence, 336 h, IPOHE: ivy-leaf morning glory (Ipomoea hederacea), 140 g ai/ha, 14 days after application, read-out: Visual Growth Reduction (%) 14 Days After Application, IPOHE

Compound | pest or weed control at 140 g/ha [%]
COC(=O)c1nc(-c2c(C)cc(C(F)(F)F)cc2Cl)ccc1Cl [F250, Methyl 3-chloro-6-(2-chloro-6-methyl-4-(trifluoromethyl)phenyl) picolinate] | 95 to 100
COC(=O)c1nc(-c2cccc(Cl)c2F)ccc1Cl [F277, Methyl 3-chloro-6-(3-chloro-2-fluorophenyl) picolinate] | 0 to 29
COC(=O)c1nc(-c2ccc(Cl)c(CF)c2F)ccc1Cl [F274, Methyl 3-chloro-6-(4-chloro-2-fluoro-3-(fluoromethyl)phenyl) picolinate] | 0 to 29

same assay, conditions: post-emergence, 336 h, KCHSC: kochia (Bassia scoparia), 140 g ai/ha, 14 days after application, read-out: Visual Growth Reduction (%) 14 Days After Application, KCHSC

Compound | pest or weed control at 140 g/ha [%]
COC(=O)c1nc(-c2c(C)cc(C(F)(F)F)cc2Cl)ccc1Cl [F250, Methyl 3-chloro-6-(2-chloro-6-methyl-4-(trifluoromethyl)phenyl) picolinate] | 0 to 29
COC(=O)c1nc(-c2cccc(Cl)c2F)ccc1Cl [F277, Methyl 3-chloro-6-(3-chloro-2-fluorophenyl) picolinate] | 0 to 29
COC(=O)c1nc(-c2ccc(Cl)c(CF)c2F)ccc1Cl [F274, Methyl 3-chloro-6-(4-chloro-2-fluoro-3-(fluoromethyl)phenyl) picolinate] | 0 to 29

same assay, conditions: post-emergence, 336 h, ORYSA: rice (Oryza sativa), 140 g ai/ha, 14 days after application, read-out: Visual Growth Reduction (%) 14 Days After Application, ORYSA

Compound | pest or weed control at 140 g/ha [%]
COC(=O)c1nc(-c2c(C)cc(C(F)(F)F)cc2Cl)ccc1Cl [F250, Methyl 3-chloro-6-(2-chloro-6-methyl-4-(trifluoromethyl)phenyl) picolinate] | 0 to 29
COC(=O)c1nc(-c2cccc(Cl)c2F)ccc1Cl [F277, Methyl 3-chloro-6-(3-chloro-2-fluorophenyl) picolinate] | 0 to 29
COC(=O)c1nc(-c2ccc(Cl)c(CF)c2F)ccc1Cl [F274, Methyl 3-chloro-6-(4-chloro-2-fluoro-3-(fluoromethyl)phenyl) picolinate] | 0 to 29

same assay, conditions: post-emergence, 336 h, SETFA: giant foxtail (Setaria faberi), 140 g ai/ha, 14 days after application, read-out: Visual Growth Reduction (%) 14 Days After Application, SETFA

Compound | pest or weed control at 140 g/ha [%]
COC(=O)c1nc(-c2c(C)cc(C(F)(F)F)cc2Cl)ccc1Cl [F250, Methyl 3-chloro-6-(2-chloro-6-methyl-4-(trifluoromethyl)phenyl) picolinate] | 45 to 59
COC(=O)c1nc(-c2cccc(Cl)c2F)ccc1Cl [F277, Methyl 3-chloro-6-(3-chloro-2-fluorophenyl) picolinate] | 0 to 29
COC(=O)c1nc(-c2ccc(Cl)c(CF)c2F)ccc1Cl [F274, Methyl 3-chloro-6-(4-chloro-2-fluoro-3-(fluoromethyl)phenyl) picolinate] | 0 to 29

same assay, conditions: post-emergence, 336 h, SORVU: grain sorghum (Sorghum vulgare), 140 g ai/ha, 14 days after application, read-out: Visual Growth Reduction (%) 14 Days After Application, SORVU

Compound | pest or weed control at 140 g/ha [%]
COC(=O)c1nc(-c2c(C)cc(C(F)(F)F)cc2Cl)ccc1Cl [F250, Methyl 3-chloro-6-(2-chloro-6-methyl-4-(trifluoromethyl)phenyl) picolinate] | 85 to 94
COC(=O)c1nc(-c2cccc(Cl)c2F)ccc1Cl [F277, Methyl 3-chloro-6-(3-chloro-2-fluorophenyl) picolinate] | 0 to 29
COC(=O)c1nc(-c2ccc(Cl)c(CF)c2F)ccc1Cl [F274, Methyl 3-chloro-6-(4-chloro-2-fluoro-3-(fluoromethyl)phenyl) picolinate] | 0 to 29

same assay, conditions: post-emergence, 336 h, STEME: common chickweed (Stellaria media), 140 g ai/ha, 14 days after application, read-out: Visual Growth Reduction (%) 14 Days After Application, STEME

Compound | pest or weed control at 140 g/ha [%]
COC(=O)c1nc(-c2c(C)cc(C(F)(F)F)cc2Cl)ccc1Cl [F250, Methyl 3-chloro-6-(2-chloro-6-methyl-4-(trifluoromethyl)phenyl) picolinate] | 0 to 29
COC(=O)c1nc(-c2cccc(Cl)c2F)ccc1Cl [F277, Methyl 3-chloro-6-(3-chloro-2-fluorophenyl) picolinate] | 0 to 29
COC(=O)c1nc(-c2ccc(Cl)c(CF)c2F)ccc1Cl [F274, Methyl 3-chloro-6-(4-chloro-2-fluoro-3-(fluoromethyl)phenyl) picolinate] | 0 to 29

same assay, conditions: post-emergence, 336 h, TRZAS: wheat, spring (Triticum aestivum), 140 g ai/ha, 14 days after application, read-out: Visual Growth Reduction (%) 14 Days After Application, TRZAS

Compound | pest or weed control at 140 g/ha [%]
COC(=O)c1nc(-c2c(C)cc(C(F)(F)F)cc2Cl)ccc1Cl [F250, Methyl 3-chloro-6-(2-chloro-6-methyl-4-(trifluoromethyl)phenyl) picolinate] | 45 to 59
COC(=O)c1nc(-c2cccc(Cl)c2F)ccc1Cl [F277, Methyl 3-chloro-6-(3-chloro-2-fluorophenyl) picolinate] | 0 to 29
COC(=O)c1nc(-c2ccc(Cl)c(CF)c2F)ccc1Cl [F274, Methyl 3-chloro-6-(4-chloro-2-fluoro-3-(fluoromethyl)phenyl) picolinate] | 0 to 29

same assay, conditions: post-emergence, 336 h, blackgrass (Alopecurus myosuroides), 14 Days After Application, 140 g ai/ha, read-out: Visual Growth Reduction (%) ALOMY

Compound | pest or weed control at 140 g/ha [%]
COC(=O)c1nc(-c2c(C)cc(C(F)(F)F)cc2Cl)ccc1Cl [F250, Methyl 3-chloro-6-(2-chloro-6-methyl-4-(trifluoromethyl)phenyl) picolinate] | 0 to 29
COC(=O)c1nc(-c2cccc(Cl)c2F)ccc1Cl [F277, Methyl 3-chloro-6-(3-chloro-2-fluorophenyl) picolinate] | 0 to 29
COC(=O)c1nc(-c2ccc(Cl)c(CF)c2F)ccc1Cl [F274, Methyl 3-chloro-6-(4-chloro-2-fluoro-3-(fluoromethyl)phenyl) picolinate] | 0 to 29

same assay, conditions: post-emergence, 336 h, canada thistle (Cirsium arvense), 14 Days After Application, 140 g ai/ha, read-out: Visual Growth Reduction (%) CIRAR

Compound | pest or weed control at 140 g/ha [%]
COC(=O)c1nc(-c2c(C)cc(C(F)(F)F)cc2Cl)ccc1Cl [F250, Methyl 3-chloro-6-(2-chloro-6-methyl-4-(trifluoromethyl)phenyl) picolinate] | 60 to 74
COC(=O)c1nc(-c2cccc(Cl)c2F)ccc1Cl [F277, Methyl 3-chloro-6-(3-chloro-2-fluorophenyl) picolinate] | 0 to 29
COC(=O)c1nc(-c2ccc(Cl)c(CF)c2F)ccc1Cl [F274, Methyl 3-chloro-6-(4-chloro-2-fluoro-3-(fluoromethyl)phenyl) picolinate] | 60 to 74

same assay, conditions: post-emergence, 336 h, crabgrass (Digitaria sanguinalis), 14 Days After Application, 140 g ai/ha, read-out: Visual Growth Reduction (%) DIGSA

Compound | pest or weed control at 140 g/ha [%]
COC(=O)c1nc(-c2c(C)cc(C(F)(F)F)cc2Cl)ccc1Cl [F250, Methyl 3-chloro-6-(2-chloro-6-methyl-4-(trifluoromethyl)phenyl) picolinate] | 85 to 94
COC(=O)c1nc(-c2cccc(Cl)c2F)ccc1Cl [F277, Methyl 3-chloro-6-(3-chloro-2-fluorophenyl) picolinate] | 0 to 29
COC(=O)c1nc(-c2ccc(Cl)c(CF)c2F)ccc1Cl [F274, Methyl 3-chloro-6-(4-chloro-2-fluoro-3-(fluoromethyl)phenyl) picolinate] | 0 to 29

same assay, conditions: post-emergence, 336 h, lambsquarters (Chenopodium album), 14 Days After Application, 140 g ai/ha, read-out: Visual Growth Reduction (%) CHEAL

Compound | pest or weed control at 140 g/ha [%]
COC(=O)c1nc(-c2c(C)cc(C(F)(F)F)cc2Cl)ccc1Cl [F250, Methyl 3-chloro-6-(2-chloro-6-methyl-4-(trifluoromethyl)phenyl) picolinate] | 75 to 84
COC(=O)c1nc(-c2cccc(Cl)c2F)ccc1Cl [F277, Methyl 3-chloro-6-(3-chloro-2-fluorophenyl) picolinate] | 0 to 29
COC(=O)c1nc(-c2ccc(Cl)c(CF)c2F)ccc1Cl [F274, Methyl 3-chloro-6-(4-chloro-2-fluoro-3-(fluoromethyl)phenyl) picolinate] | 0 to 29

same assay, conditions: post-emergence, 336 h, redroot pigweed (Amaranthus retroflexus), 14 Days After Application, 140 g ai/ha, read-out: Visual Growth Reduction (%) AMARE

Compound | pest or weed control at 140 g/ha [%]
COC(=O)c1nc(-c2c(C)cc(C(F)(F)F)cc2Cl)ccc1Cl [F250, Methyl 3-chloro-6-(2-chloro-6-methyl-4-(trifluoromethyl)phenyl) picolinate] | 0 to 29
COC(=O)c1nc(-c2cccc(Cl)c2F)ccc1Cl [F277, Methyl 3-chloro-6-(3-chloro-2-fluorophenyl) picolinate] | 0 to 29
COC(=O)c1nc(-c2ccc(Cl)c(CF)c2F)ccc1Cl [F274, Methyl 3-chloro-6-(4-chloro-2-fluoro-3-(fluoromethyl)phenyl) picolinate] | 0 to 29

same assay, conditions: post-emergence, 336 h, wild oat (Avena fatua), 14 Days After Application, 140 g ai/ha, read-out: Visual Growth Reduction (%) AVEFA

Compound | pest or weed control at 140 g/ha [%]
COC(=O)c1nc(-c2c(C)cc(C(F)(F)F)cc2Cl)ccc1Cl [F250, Methyl 3-chloro-6-(2-chloro-6-methyl-4-(trifluoromethyl)phenyl) picolinate] | 0 to 29
COC(=O)c1nc(-c2cccc(Cl)c2F)ccc1Cl [F277, Methyl 3-chloro-6-(3-chloro-2-fluorophenyl) picolinate] | 0 to 29
COC(=O)c1nc(-c2ccc(Cl)c(CF)c2F)ccc1Cl [F274, Methyl 3-chloro-6-(4-chloro-2-fluoro-3-(fluoromethyl)phenyl) picolinate] | 0 to 29

same assay, conditions: post-emergence, 336 h, yellow nutsedge (Cyperus esculentus), 14 Days After Application, 140 g ai/ha, read-out: Visual Growth Reduction (%) CYPES

Compound | pest or weed control at 140 g/ha [%]
COC(=O)c1nc(-c2c(C)cc(C(F)(F)F)cc2Cl)ccc1Cl [F250, Methyl 3-chloro-6-(2-chloro-6-methyl-4-(trifluoromethyl)phenyl) picolinate] | 0 to 29
COC(=O)c1nc(-c2cccc(Cl)c2F)ccc1Cl [F277, Methyl 3-chloro-6-(3-chloro-2-fluorophenyl) picolinate] | 0 to 29
COC(=O)c1nc(-c2ccc(Cl)c(CF)c2F)ccc1Cl [F274, Methyl 3-chloro-6-(4-chloro-2-fluoro-3-(fluoromethyl)phenyl) picolinate] | 0 to 29
